In US11572366B2, “Heterocyclic compounds as immunomodulators” (Incyte Corporation, priority 2015, dated 2023):

Biological target: PD-1/PD-L1 protein/protein interaction (Homo sapiens (Human), UniProt Q9NZQ7)
Assay: PD-1/PD-L1 Homogeneous Time-Resolved Fluorescence (HTRF) binding assay
Details: recombinant human PD-L1 (19-238) His-tag 10 nM, human PD-1 (25-167) Fc tag 3 nM, 25° C., PBS pH 7.4
Method: Example A. PD-1/PD-L Homogeneous Time-Resolved Fluorescence (HTRF) Binding Assay
The assays were conducted in a standard black 384-well polystyrene plate with a final volume of 20 μL. Inhibitors were first serially diluted in DMSO and then added to the plate wells before the addition of other reaction components. The final concentration of DMSO in the assay was 1%. The assays were carried out at 25° C. in the PBS buffer (pH 7.4) with 0.05% Tween-20 and 0.1% BSA. Recombinant human PD-L1 protein (19-238) with a His-tag at the C-terminus was purchased from AcroBiosystems (PD1-H5229). Recombinant human PD-1 protein (25-167) with Fc tag at the C-terminus was also purchased from AcroBiosystems (PD1-H5257). PD-L1 and PD-1 proteins were diluted in the assay buffer and 10 μL was added to the plate well. Plates were centrifuged and proteins were preincubated with inhibitors for 40 minutes. The incubation was followed by the addition of 10 μL of HTRF detection buffer supplemented with Europium cryptate-labeled anti-human IgG (PerkinElmer-AD0212) specific for Fe and anti-His antibody conjugated to SureLight®-Allophycocyanin (APC, PerkinElmer-AD0059H). After centrifugation, the plate was incubated at 25° C. for 60 min. before reading on a PHERAstar FS plate reader (665 nm/620 nm ratio). Final concentrations in the assay were—3 nM PD1, 10 nM PD-L1, 1 nM europium anti-human IgG and 20 nM anti-His-Allophycocyanin.IC50 determination was performed by fitting the curve of percent control activity versus the log of the inhibitor concentration using the GraphPad Prism 5.0 software.

PD-1/PD-L1 protein/protein interaction, sequence (Q9NZQ7 19-238): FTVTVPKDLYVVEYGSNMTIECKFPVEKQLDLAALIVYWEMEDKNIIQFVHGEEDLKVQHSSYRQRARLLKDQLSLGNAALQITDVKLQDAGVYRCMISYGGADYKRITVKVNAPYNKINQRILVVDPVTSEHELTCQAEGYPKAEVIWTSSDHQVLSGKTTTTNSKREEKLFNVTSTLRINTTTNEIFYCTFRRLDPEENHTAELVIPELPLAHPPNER

Row | SMILES | IC50 [nM]
1 | Cc1c(-c2ccc3c(c2)OCCO3)ccnc1-c1nc2cc(CN3CCCC[C@H]3C(=O)O)c(OCC#N)cc2o1 [Example 35, (2S)-1-({6-(cyanomethoxy)-2-[4-(2,3-dihydro-1,4-benzodioxin-6-yl)-3-methylpyridin-2-yl]-1,3-benzoxazol-5-yl}methyl)piperidine-2-carboxylic Acid] | 10 to 100
2 | Cc1c(-c2ccc3c(c2)OCCO3)cccc1-c1nc2cc(CN3CCCC[C@H]3C(=O)O)c(OCC#N)cc2o1 [Example 36, (2S)-1-({6-(cyanomethoxy)-2-[3-(2,3-dihydro-1,4-benzodioxin-6-yl)-2-methylphenyl]-1,3-benzoxazol-5-yl}methyl)piperidine-2-carboxylic Acid] | ≤ 10
3 | N#CCOc1cc2oc(-c3cccc(-c4ccc5c(c4)OCCO5)c3C#N)nc2cc1CN1CCCC[C@H]1C(=O)O [Example 37, (2S)-1-{[2-[2-cyano-3-(2,3-dihydro-1,4-benzodioxin-6-yl)phenyl]-6-(cyanomethoxy)-1,3-benzoxazol-5-yl]methyl}piperidine-2-carboxylic Acid] | 10 to 100
4 | Cc1c(-c2ccccc2)cccc1-c1nc2ccc(CN3CCCC[C@H]3C(=O)O)cc2o1 [Example 38, (2S)-1-{[2-(2-methylbiphenyl-3-yl)-1,3-benzoxazol-6-yl]methyl}piperidine-2-carboxylic Acid] | 10 to 100

More lines, now with the values ahead:

Row | IC50 [nM] | SMILES
5 | ≤ 10 | Cc1c(-c2nc3cc(CNCCO)c(OCC#N)cc3o2)cccc1-c1ccccc1F [Example 39, [(2-(2′-fluoro-2-methylbiphenyl-3-yl)-5-{[(2-hydroxyethyl)amino]methyl}-1,3-benzoxazol-6-yl)oxy]acetonitrile]
6 | 10 to 100 | Cc1c(C2=CCCCC2)cccc1-c1nc2cc(CNCCO)c(OCC#N)cc2o1 [Example 40, [(2-(3-cyclohex-1-en-1-yl-2-methylphenyl)-5-{[(2-hydroxyethyl)amino]methyl}-1,3-benzoxazol-6-yl)oxy]acetonitrile]
